Positions count from the first letter of the chain named. Like-named read-outs stand apart in the source and are kept apart here.
Tests used:
OX1R S103T = biological target: T1, OX1R S103T (Homo sapiens, UniProt O43613, S103T); experiment: IP accumulation assay, OX1R S103T; type: cell-based
T1 construct: FLAG; expressed in transfected cells; host or cells: HEK293
T1 sequence (O43613 1-425 S103T): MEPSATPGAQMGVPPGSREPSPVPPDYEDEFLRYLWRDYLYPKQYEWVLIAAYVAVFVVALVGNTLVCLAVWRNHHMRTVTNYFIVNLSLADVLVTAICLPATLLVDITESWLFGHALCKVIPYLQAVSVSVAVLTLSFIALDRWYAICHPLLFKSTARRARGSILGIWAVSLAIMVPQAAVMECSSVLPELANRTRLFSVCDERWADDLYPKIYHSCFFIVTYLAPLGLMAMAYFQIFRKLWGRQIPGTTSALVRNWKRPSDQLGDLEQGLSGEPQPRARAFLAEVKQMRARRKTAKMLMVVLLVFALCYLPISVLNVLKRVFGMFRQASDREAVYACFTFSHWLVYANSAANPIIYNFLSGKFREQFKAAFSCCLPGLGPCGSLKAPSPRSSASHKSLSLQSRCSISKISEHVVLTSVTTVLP
Description: (§1) The IP assay was adapted from a prior precedent. HEK293 cells were maintained in DMEM-high glucose (Millipore Sigma) supplemented with 5% fetal bovine serum (Corning) and penicillin-streptomycin (Millipore Sigma). Receptor constructs used were the full-length wild-type (or mutant) human OX1R and OX2R sequences cloned into pCDNA3. To enhance the Emax in the IP assay, a plasmid encoding full-length human Gαq subunit[66] was co-transfected into HEK293 cells with plasmids encoding orexin receptor constructs using Lipofectamine 3000 (Thermo Fisher). 24 h after transfection, the cells were plated on poly-D-lysine coated (Millipore Sigma) tissue culture-treated 96 well white plates with clear bottoms (Perkin Elmer) at 30,000 cells per well in Inositol-free DMEM (MP Biomedicals) supplemented with 5% fetal bovine serum, 4 mM L-glutamine (Millipore Sigma), penicillin-streptomycin, and about 5 uCi (5 ul) per ml myo-[2-3H] inositol (Perkin Elmer). The following day, the media was replaced with agonists that were diluted in HBSS (Millipore Sigma) containing 10 mM lithium chloride (Millipore Sigma) and incubated at 37 °C for 45 min. Then agonists were removed and cells were lysed on ice for 30 min with 10 mM formic acid (Millipore Sigma). 1.25 mg of poly-lysine coated YSI SPA beads (Perkin Elmer) was added to each well. The plates were mixed on an orbital shaker for 30 min. The plates were read on a MicroBeta scintillation counter (Perkin Elmer) the following day. IP accumulation assays on different constructs were performed in n ≥ 3 independent experiments (each done in duplicate), where n is shown in Supplementary Table 2.

OX1R S103T/A127T = biological target: T2, OX1R S103T/A127T (Homo sapiens, UniProt O43613, A127T/S103T); experiment: IP accumulation assay, OX1R S103T/A127T; type: cell-based
T2 construct: FLAG; expressed in transfected cells; host or cells: HEK293
T2 sequence (O43613 1-425 S103T/A127T): T1 sequence (O43613 1-425 S103T) with A127T
Description: as §1

OX2R F228A = biological target: T3, OX2R F228A (Homo sapiens, UniProt O43614, F228A); experiment: β-arrestin PathHunter assay, OX2R F228A; type: cell-based; conditions: β-arrestin recruitment
T3 construct: expressed in transfected cells; host or cells: CHO-K1 stably expressing EA β-arrestin2
Description: (§2) β-Arrestin recruitment activity was measured by using the PathHunter system (DiscoveRX) according to the manufacturer’s instruction. Receptor constructs used were the full-length wild-type (or mutant) human OX2R sequences cloned into pCMV-ProLink (DiscoveRX). CHO-K1 cells stably expressing EA β-arrestin2 (DiscoveRX) were plated on 384 well white plates (Thermo Fisher) at 4000 cells/well in HamF12 (Wako Pure Chemical Industries) supplemented with 10% fetal bovine serum (Corning) and penicillin-streptomycin (Wako Pure Chemical Industries) and incubated overnight at 37 °C under 5% CO2. Cells were transfected with plasmids encoding wild type or each mutant ProLink-tagged human OX2R using FuGENE HD (Promega). […] Detection reagent was added and incubated for 1 h at room temperature. Luminescent signal was detected using an EnVision plate reader (PerkinElmer). β-arrestin assays on different constructs were performed in two or three independent experiments (each done in quadruplicate). Dose response curves (shown in Supplementary Fig. 8) were fitted to the three-parameter model ‘log(agonist) vs response’ in GraphPad Prism to determine pEC50 values.

OX2R Y317A = biological target: T4, OX2R Y317A (Homo sapiens, UniProt O43614, Y317A); experiment: β-arrestin PathHunter assay, OX2R Y317A; type: cell-based; conditions: for EC50: β-arrestin recruitment
T4 construct: expressed in transfected cells; host or cells: CHO-K1 stably expressing EA β-arrestin2
T4 sequence (O43614 1-444 Y317A): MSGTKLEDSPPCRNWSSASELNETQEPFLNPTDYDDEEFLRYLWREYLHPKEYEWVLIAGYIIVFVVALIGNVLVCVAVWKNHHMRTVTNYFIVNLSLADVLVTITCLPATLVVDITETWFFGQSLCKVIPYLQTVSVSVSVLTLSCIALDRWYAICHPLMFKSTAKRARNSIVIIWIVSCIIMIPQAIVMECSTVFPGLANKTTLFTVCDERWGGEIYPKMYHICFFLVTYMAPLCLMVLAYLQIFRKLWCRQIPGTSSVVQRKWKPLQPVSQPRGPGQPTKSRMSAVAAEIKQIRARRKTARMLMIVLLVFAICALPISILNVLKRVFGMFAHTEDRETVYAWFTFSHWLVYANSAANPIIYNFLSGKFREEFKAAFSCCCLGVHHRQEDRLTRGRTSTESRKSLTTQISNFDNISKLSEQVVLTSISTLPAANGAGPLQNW
Description: as §2

wakefulness = conditions: subcutaneous delivery during the sleep period; cited from earlier work
[1] = 0.75 h, TAK-925 conc (log, M) -4.00
[2] = 0.75 h, TAK-925 conc (log, M) -4.95
[3] = 0.75 h, TAK-925 conc (log, M) -5.43
[4] = 0.75 h, TAK-925 conc (log, M) -5.91

T3 sequence (O43614 whole entry F228A): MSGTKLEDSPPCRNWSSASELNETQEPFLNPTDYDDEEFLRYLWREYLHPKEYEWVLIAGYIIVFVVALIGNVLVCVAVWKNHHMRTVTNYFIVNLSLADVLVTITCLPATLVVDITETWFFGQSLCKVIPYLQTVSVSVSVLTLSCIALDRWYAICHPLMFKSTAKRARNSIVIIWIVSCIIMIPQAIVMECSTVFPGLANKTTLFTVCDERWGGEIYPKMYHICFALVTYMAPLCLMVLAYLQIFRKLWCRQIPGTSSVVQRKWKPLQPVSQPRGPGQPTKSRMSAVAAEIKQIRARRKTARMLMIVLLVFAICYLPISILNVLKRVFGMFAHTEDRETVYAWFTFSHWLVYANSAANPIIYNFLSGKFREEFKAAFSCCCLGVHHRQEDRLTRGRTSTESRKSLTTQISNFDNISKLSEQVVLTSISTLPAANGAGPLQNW

For `COC(=O)N1CCC[C@H](NS(C)(=O)=O)[C@@H]1CO[C@H]1CC[C@@H](c2ccccc2)CC1` [TAK-925, methyl (2R,3S)−3-[(methylsulfonyl)amino]−2-{[(cis−4-phenylcyclohexyl)oxy]methyl}piperidine-1-carboxylate], the activation at 100 µM (OX1R S103T; [1]) was 122%, the activation at 11.2 µM (OX1R S103T; [2]) was 88.4% and the activation at 3.72 µM (OX1R S103T; [3]) was 57.1%. For the same compound, the activation at 1.23 µM (OX1R S103T; [4]) was 21.9%, the activation at 0.0457 µM (OX1R S103T; 0.75 h, TAK-925 conc (log, M) -7.34) was 9.04% and the EC50 (OX1R S103T; IP accumulation) was 5.3 µM. The Emax (OX1R S103T; relative to OX1R S103T/A127T/TAK-925) was 130, the activation at 100 µM (OX1R S103T/A127T; [1]) was 90.6% and the activation at 33.1 µM (OX1R S103T/A127T; 0.75 h, TAK-925 conc (log, M) -4.48) was 102%. It also gave an activation at 11.2 µM (OX1R S103T/A127T; [2]) of 99.6%, an activation at 3.72 µM (OX1R S103T/A127T; [3]) of 94.2% and an activation at 1.23 µM (OX1R S103T/A127T; [4]) of 81.6%. It also gave an activation at 0.407 µM (OX1R S103T/A127T; 0.75 h, TAK-925 conc (log, M) -6.39) of 58.2%, an activation at 0.138 µM (OX1R S103T/A127T; 0.75 h, TAK-925 conc (log, M) -6.86) of 26.9% and an activation at 0.0151 µM (OX1R S103T/A127T; 0.75 h, TAK-925 conc (log, M) -7.82) of 6.39%. The EC50 (OX1R S103T/A127T; IP accumulation) was 300 nM, the Emax (OX1R S103T/A127T; normalized to OX1R S103T/A127T Emax) was 100 and the EC50 (OX2R F228A) was 600 nM. For the same compound, the “β-arrestin recruitment, change on mutation of Tyr317” value (OX2R Y317A) was “large reductions”, the EC50 (OX2R Y317A; pEC50 ± SEM, read-out: pEC50 (converted)) was over 30.2 µM and the EC50 (OX2R Y317A; read-out: EC50) was over 30 µM. For the same compound, the “wakefulness and sleep time” value (wakefulness) was “dose-dependent increase in wakefulness and reduction in sleep time”.
